These results are taken from patent publication US20250195530A1, “POLQ INHIBITORS” (ASTRAZENECA AB, priority 2022, published 2025).

Each structure is given as a SMILES string. Like-named read-outs stand apart in the source and are kept apart here. Where only a bound is given, the exact number is not on record here.

Test [1] deals with DLD-1 BRCA2−/− cells. Briefly: Homologous recombination synthetic lethal inhibition of proliferation, DLD-1 BRCA2-/- (Cell Titre Glo 3D). The class given is cell-based. The settings on record: Homo sapiens, read-out: POLQ PD Prolif Lumin (converted). The essentials:
(§1)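 Wild-type DLD-1 serves as the control for non-specific toxicity, and BRCA2-null DLD-1 as the homologous-recombination-deficient line. Both grew with compound from 10 μM down to 0.51 nM, re-dosed after 6 days. Luminescent ATP content (CellTiter-Glo 3D) was read after 7 or 12 days, respectively, to give IC50 values.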

The test system of test [2] is DLD-1 cells. Description: Inhibition of proliferation, DLD-1 BRCA2 wt control (Cell Titre Glo 3D). The conditions noted are these: Homo sapiens, read-out: POLQ PD Prolif Lumin (converted). The class given is cell-based. The essentials: as §1
Setting [3] is: DLD-1, proliferation, luminescence, taken as DLD-1 BRCA2-/-.
The mark [4] stands for this setting: DLD-1, proliferation, luminescence, second Prolif column (c6), taken as DLD-1 BRCA2 wt control.
The mark [5] stands for this setting: DLD-1, first proliferation column (c5), DLD-1 BRCA2-/-.
Where [6] appears, read: DLD-1, second proliferation column (c6), DLD-1 BRCA2 wt control.

On to `Cc1ccnc(Cn2c(-c3ccc(C(=O)N4CC5CC(C4)N5)cc3Cl)nc3c(OC4(C)CC4)ncnc32)c1` [Example T427, (3,6-diazabicyclo[3.1.1]heptan-3-yl)(3-chloro-4-(6-(1-methylcyclopropoxy)-9-((4-methylpyridin-2-yl)methyl)-9H-purin-8-yl)phenyl)methanone], for which the IC50 is 7940 nM in test [1] (setting [3]) and > 10000 nM in test [2] (setting [4]).

For `Cc1ccnc(Cn2c(-c3ccc(C(=O)N4CC5(CNC5)C4)cc3Cl)nc3c(OC4(C)CC4)ncnc32)c1` [Example T428, (3-chloro-4-(6-(1-methylcyclopropoxy)-9-((4-methylpyridin-2-yl)methyl)-9H-purin-8-yl)phenyl)(2,6-diazaspiro[3.3]heptan-2-yl)methanone], the IC50 in test [1] (setting [3]) and in test [2] (setting [4]) was > 10000 nM each time.

With `Cc1ccnc(Cn2c(-c3ccc(C(=O)N4CC5(CCN5)C4)cc3Cl)nc3c(OC4(C)CC4)ncnc32)c1` [Example T429, (3-chloro-4-(6-(1-methylcyclopropoxy)-9-((4-methylpyridin-2-yl)methyl)-9H-purin-8-yl)phenyl)(1,6-diazaspiro[3.3]heptan-6-yl)methanone], the IC50 was 1260 nM in test [1] (setting [3]) and > 10000 nM in test [2] (setting [4]).

For the molecule `Cc1ccnc(Cn2c(-c3ccc(CC(=O)N4CCNC(=O)C4)cc3Cl)nc3c(OC4(C)CC4)ncnc32)c1` [Example T431, 4-(2-(3-chloro-4-(6-(1-methylcyclopropoxy)-9-((4-methylpyridin-2-yl)methyl)-9H-purin-8-yl)phenyl)acetyl)piperazin-2-one], the IC50 is 2510 nM in test [1] (setting [3]) and > 10000 nM in test [2] (setting [4]).

On to `CC1(Oc2ncnc3c2nc(-c2ccc(OCCC(C)(C)C(=O)O)cc2Cl)n3Cc2cccc(Cl)c2)CC1` [Example T435, 4-(3-chloro-4-(9-(3-chlorobenzyl)-6-(1-methylcyclopropoxy)-9H-purin-8-yl)phenoxy)-2,2-dimethylbutanoic acid], for which the values for the IC50 in test [1] (setting [3]) and in test [2] (setting [4]) were 200 nM and > 10000 nM, respectively.

Consider `CC1(Oc2ncnc3c2nc(-c2ccc(OCCCCCC(=O)O)cc2Cl)n3Cc2cccc(Cl)c2)CC1` [Example T437, 6-(3-chloro-4-(9-(3-chlorobenzyl)-6-(1-methylcyclopropoxy)-9H-purin-8-yl)phenoxy)hexanoic acid], for which the IC50 in test [1] (setting [3]) was 63.1 nM; in test [2] (setting [4]) it was > 10000 nM.

In the case of `CC1(Oc2ncnc3c2nc(-c2cccc(OCCCCCC(=O)O)c2Cl)n3Cc2cccc(Cl)c2)CC1` [Example T440, 6-(2-chloro-3-(9-(3-chlorobenzyl)-6-(1-methylcyclopropoxy)-9H-purin-8-yl)phenoxy)hexanoic acid], the IC50 in test [1] (setting [3]) was 25.1 nM; in test [2] (setting [4]), > 10000 nM.

For `CC1(Oc2ncnc3c2nc(-c2ccc(OCCCCOCC(=O)O)cc2Cl)n3Cc2cccc(Cl)c2)CC1` [Example T445, 2-(4-(3-chloro-4-(9-(3-chlorobenzyl)-6-(1-methylcyclopropoxy)-9H-purin-8-yl)phenoxy)butoxy)acetic acid], the IC50 in test [1] (setting [3]) was 251 nM; in test [2] (setting [4]), > 10000 nM.

With `CC1(Oc2ncnc3c2nc(-c2cccc(OCCCCOCC(=O)O)c2Cl)n3Cc2cccc(Cl)c2)CC1` [Example T448, 2-(4-(2-chloro-3-(9-(3-chlorobenzyl)-6-(1-methylcyclopropoxy)-9H-purin-8-yl)phenoxy)butoxy)acetic acid], the IC50 is 79.4 nM in test [1] (setting [3]) and > 10000 nM in test [2] (setting [4]).

`CC1(Oc2ncnc3c2nc(-c2ccc(OCCCOCCC(=O)O)cc2Cl)n3Cc2cccc(Cl)c2)CC1` [Example T449, 3-(3-(3-chloro-4-(9-(3-chlorobenzyl)-6-(1-methylcyclopropoxy)-9H-purin-8-yl)phenoxy)propoxy)propanoic acid]: the values for the IC50 in test [1] (setting [3]) and in test [2] (setting [4]) were 50.1 nM and > 10000 nM, respectively.

Regarding `CC1(Oc2ncnc3c2nc(-c2ccc(OCCOC(C)(C)C(=O)O)cc2Cl)n3Cc2cccc(Cl)c2)CC1` [Example T450, 2-(2-(3-chloro-4-(9-(3-chlorobenzyl)-6-(1-methylcyclopropoxy)-9H-purin-8-yl)phenoxy)ethoxy)-2-methylpropanoic acid], the IC50 in test [1] (setting [3]) is 200 nM; in test [2] (setting [4]), > 10000 nM.

In the case of `CC1(Oc2ncnc3c2nc(-c2ccc(OCCOCCOCC(=O)O)cc2Cl)n3Cc2cccc(Cl)c2)CC1` [Example T451, 2-(2-(2-(3-chloro-4-(9-(3-chlorobenzyl)-6-(1-methylcyclopropoxy)-9H-purin-8-yl)phenoxy)ethoxy)ethoxy)acetic acid], the IC50 was 501 nM in test [1] (setting [3]) and > 10000 nM in test [2] (setting [4]).

Consider `CC1(Oc2ncnc3c2nc(-c2ccc(OCCCN4CC(O)C4)cc2Cl)n3Cc2cc(C(F)F)ccn2)CC1` [Example T452, 1-(3-(3-chloro-4-(9-((4-(difluoromethyl)pyridin-2-yl)methyl)-6-(1-methylcyclopropoxy)-9H-purin-8-yl)phenoxy)propyl)azetidin-3-ol], for which the IC50 in test [1] (setting [3]) was 794 nM; in test [2] (setting [4]), > 10000 nM.

`CC1(Oc2ncnc3c2nc(-c2ccc(OCCN4CCNCC4)cc2C(F)(F)F)n3Cc2cc(Cl)ccn2)CC1` [Example T453, 9-((4-chloropyridin-2-yl)methyl)-6-(1-methylcyclopropoxy)-8-(4-(2-(piperazin-1-yl)ethoxy)-2-(trifluoromethyl)phenyl)-9H-purine]: the figures for the IC50 in test [1] (setting [3]) and in test [2] (setting [4]) were 251 nM and > 10000 nM, respectively.

Consider `Cc1ccnc(Cn2c(-c3ccc(OC4CC5(CNC5)C4)cc3Cl)nc3c(OC4(C)CC4)ncnc32)c1` [Example T457, 8-(4-((2-azaspiro[3.3]heptan-6-yl)oxy)-2-chlorophenyl)-6-(1-methylcyclopropoxy)-9-((4-methylpyridin-2-yl)methyl)-9H-purine], for which the IC50 was 316 nM in test [1] (setting [3]) and > 10000 nM in test [2] (setting [4]).

For `Cc1ccnc(Cn2c(-c3ccc(C(=O)N4CCC(O)CC4)cc3Cl)nc3c(OC4(C)CC4)ncnc32)c1` [Example T460, (3-chloro-4-(6-(1-methylcyclopropoxy)-9-((4-methylpyridin-2-yl)methyl)-9H-purin-8-yl)phenyl)(4-hydroxypiperidin-1-yl)methanone], the IC50 is 3160 nM in test [1] (setting [3]) and > 10000 nM in test [2] (setting [4]).

As to `Cc1ccnc(Cn2c(-c3ccc(CC(=O)N4CC(C)(O)C4)cc3Cl)nc3c(OC4(C)CC4)ncnc32)c1` [Example T470, 2-(3-chloro-4-(6-(1-methylcyclopropoxy)-9-((4-methylpyridin-2-yl)methyl)-9H-purin-8-yl)phenyl)-1-(3-hydroxy-3-methylazetidin-1-yl)ethan-1-one], the IC50 in test [1] (setting [3]) is 1000 nM; in test [2] (setting [4]), > 10000 nM.

For `Cc1ccnc(Cn2c(-c3ccc(OC4CN(C(=O)[C@@H](C)O)C4)cc3Cl)nc3c(OC4(C)CC4)ncnc32)c1` [Example T482, (R)-1-(3-(3-chloro-4-(6-(1-methylcyclopropoxy)-9-((4-methylpyridin-2-yl)methyl)-9H-purin-8-yl)phenoxy)azetidin-1-yl)-2-hydroxypropan-1-one], the IC50 in test [1] (setting [3]) is 316 nM; in test [2] (setting [4]) it was > 10000 nM.

In the case of `CC1(Oc2ncnc3c2nc(-c2ccc(OCCN4CCNCC4)cc2Cl)n3Cc2ccc(C#N)cn2)CC1` [Example T484, 6-((8-(2-chloro-4-(2-(piperazin-1-yl)ethoxy)phenyl)-6-(1-methylcyclopropoxy)-9H-purin-9-yl)methyl)nicotinonitrile], the IC50 in test [1] (setting [5]) was > 7940 nM; in test [2] (setting [6]), > 10000 nM.

Turning to `CC1(Oc2ncnc3c2nc(-c2ccc(OCCN4CCNCC4)cc2Cl)n3Cc2cc(C(F)F)ccn2)CC1` [Example T488, 8-(2-chloro-4-(2-(piperazin-1-yl)ethoxy)phenyl)-9-((4-(difluoromethyl)pyridin-2-yl)methyl)-6-(1-methylcyclopropoxy)-9H-purine], the IC50 in test [1] (setting [5]) is 1000 nM; in test [2] (setting [6]), > 10000 nM.

As to `Cc1ccnc(Cn2c(-c3ccc(CN4CC5(CCN5)C4)cc3Cl)nc3c(OC4(C)CC4)ncnc32)c1` [Example T489, 8-(4-((1,6-diazaspiro[3.3]heptan-6-yl)methyl)-2-chlorophenyl)-6-(1-methylcyclopropoxy)-9-((4-methylpyridin-2-yl)methyl)-9H-purine], the IC50 in test [1] (setting [5]) was 794 nM; in test [2] (setting [6]), 5010 nM.

As for `Cc1ccnc(Cn2c(-c3ccc(CC(=O)N4CCNCC4)cc3Cl)nc3c(OC4(C)CC4)ncnc32)c1` [Example T495, 2-(3-chloro-4-(6-(1-methylcyclopropoxy)-9-((4-methylpyridin-2-yl)methyl)-9H-purin-8-yl)phenyl)-1-(piperazin-1-yl)ethan-1-one], the IC50 was 794 nM in test [1] (setting [5]) and > 10000 nM in test [2] (setting [6]).

Take `Cc1ccnc(Cn2c(-c3ccc(C(=O)N4CCCNCC4)cc3Cl)nc3c(OC4(C)CC4)ncnc32)c1` [Example T496, (3-chloro-4-(6-(1-methylcyclopropoxy)-9-((4-methylpyridin-2-yl)methyl)-9H-purin-8-yl)phenyl)(1,4-diazepan-1-yl)methanone]: the IC50 in test [1] (setting [5]) and in test [2] (setting [6]) was > 10000 nM throughout.

Turning to `CC1(Oc2ncnc3c2nc(-c2ccc(OCCCN4CC[C@@H](O)C4)cc2Cl)n3Cc2cc(Cl)ccn2)CC1` [Example T502, (R)-1-(3-(3-chloro-4-(9-((4-chloropyridin-2-yl)methyl)-6-(1-methylcyclopropoxy)-9H-purin-8-yl)phenoxy)propyl)pyrrolidin-3-ol], the figures for the IC50 in test [1] (setting [5]) and in test [2] (setting [6]) were 126 nM and > 7940 nM, respectively.

Turning to `CC1(Oc2ncnc3c2nc(-c2ccc(OCCCN4CC[C@H](O)C4)cc2Cl)n3Cc2cc(Cl)ccn2)CC1` [Example T503, (S)-1-(3-(3-chloro-4-(9-((4-chloropyridin-2-yl)methyl)-6-(1-methylcyclopropoxy)-9H-purin-8-yl)phenoxy)propyl)pyrrolidin-3-ol], the IC50 in test [1] (setting [5]) is 100 nM; in test [2] (setting [6]), > 7940 nM.
